Results: PMC6979384, “Characterization of the plant homeodomain (PHD) reader family for their histone tail interactions” (Epigenetics & Chromatin, 2020)
Each block holds one substance with its values, some of them ahead of it.

Legend:
Experiment in all cases: Histone peptide microarray
Assay type in all cases: binding, human
AIRE (PP) = conditions: AIRE (PP)
Outline: (§1)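 Purified PHD finger domains fused to GST are screened against 293 synthetic histone peptides bearing one or several post-translational modifications. The protein is used at 0.5 μM, and the signal from four replicate arrays is averaged, with standard deviation given.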

BAZ2B = conditions: BAZ2B
Outline: as §1

BPTF (PB) = conditions: BPTF (PB)
Outline: as §1

CHD4 (PPCC) = conditions: CHD4 (PPCC)
Outline: as §1

CHD5 (PCC) = conditions: CHD5 (PCC)
Outline: as §1

CHD5 (PPCC) = conditions: CHD5 (PPCC)
Outline: as §1

DIDO1 = test system: DIDO1
Outline: as §1

DPF2 (PPC2W2) = conditions: DPF2 (PPC2W2)
Outline: as §1

ING1 = test system: ING1
Outline: as §1

ING2 = test system: ING2
Outline: as §1

ING3 = test system: ING3
Outline: as §1

ING4 = test system: ING4
Outline: as §1

ING5 = test system: ING5
Outline: as §1

KDM4C (TTP) = conditions: KDM4C (TTP)
Outline: as §1

KDM5A (1) = conditions: KDM5A (1)
Outline: as §1

KDM5A (3) = conditions: KDM5A (3)
Outline: as §1

KDM5B (1) = conditions: KDM5B (1)
Outline: as §1

KDM5B (3) = conditions: KDM5B (3)
Outline: as §1

KDM7A = conditions: KDM7A
Outline: as §1

MLL5 = test system: MLL5
Outline: as §1

MORC3 (CW) = conditions: MORC3 (CW)
Outline: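 GST-tagged PHD finger readers were expressed, purified and applied at 0.5 μM to a microarray of 293 synthetic histone peptides carrying single or combinatorial PTMs, using an optimized protocol. Binding signals are averages with standard deviation from 4 replicates.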

PHF13 = test system: PHF13
Outline: as §1

PHF21A = conditions: PHF21A
Outline: as §1

PHF23 = test system: PHF23
Outline: as §1

PHF2 = test system: PHF2
Outline: as §1

PHF8 = test system: PHF8
Outline: as §1

PHRF1 (RP) = conditions: PHRF1 (RP)
Outline: as §1

RAG2 = test system: RAG2
Outline: as §1

SP140L = conditions: SP140L
Outline: as §1

TAF3 = test system: TAF3
Outline: as §1

TRIM66 (PB) = conditions: TRIM66 (PB)
Outline: as §1

[1] = GST-tagged, arrays performed twice, n of 4
[2] = sheet "Array Heatmap", each array performed twice, total n = 4

Array Heatmap value (peptide array binding signal) (AIRE (PP); [1]): 0.4246 | Array Heatmap value (peptide array binding signal) (BAZ2B; [1]): 0.4726 | Array Heatmap value (peptide array binding signal) (BPTF (PB); [1]): 0.3716 | Array Heatmap value (peptide array binding signal) (CHD4 (PPCC); [1]): 0.6125 | Array Heatmap value (peptide array binding signal) (CHD5 (PCC); [1]): 0.8139 | Array Heatmap value (peptide array binding signal) (CHD5 (PPCC); [1]): 0.558 | Array Heatmap value (peptide array binding signal) (DIDO1; DIDO1, GST-tagged, arrays performed twice, n of 4): 0.7218 | Array Heatmap value (peptide array binding signal) (DPF2 (PPC2W2); [1]): 0.7109 | Array Heatmap value (peptide array binding signal) (ING1; ING1, GST-tagged, arrays performed twice, n of 4): 0.5733 | Array Heatmap value (peptide array binding signal) (ING2; ING2, GST-tagged, arrays performed twice, n of 4): 0.5951 | Array Heatmap value (peptide array binding signal) (ING3; ING3, GST-tagged, arrays performed twice, n of 4): 0.514 | Array Heatmap value (peptide array binding signal) (ING4; ING4, GST-tagged, arrays performed twice, n of 4): 0.4749 | Array Heatmap value (peptide array binding signal) (ING5; ING5, GST-tagged, arrays performed twice, n of 4): 0.3641 | Array Heatmap value (peptide array binding signal) (KDM4C (TTP); [1]): 0.4883 | Array Heatmap value (peptide array binding signal) (KDM5A (1); [1]): 0.445 | Array Heatmap value (peptide array binding signal) (KDM5A (3); [1]): 0.4616 | Array Heatmap value (peptide array binding signal) (KDM5B (1); [1]): 0.6396 | Array Heatmap value (peptide array binding signal) (KDM5B (3); [1]): 0.4591 | Array Heatmap value (peptide array binding signal) (KDM7A; [1]): 0.3413 | Array Heatmap value (peptide array binding signal) (MLL5; MLL5, GST-tagged, arrays performed twice, n of 4): 0.5584 | Array Heatmap value (peptide array binding signal) (MORC3 (CW); [1]): 0.3765 | Array Heatmap value (peptide array binding signal) (PHF13; PHF13, GST-tagged, arrays performed twice, n of 4): 0.6242 | Array Heatmap value (peptide array binding signal) (PHF21A; [1]): 0.4915 | Array Heatmap value (peptide array binding signal) (PHF23; PHF23, GST-tagged, arrays performed twice, n of 4): 0.5427 | Array Heatmap value (peptide array binding signal) (PHF2; PHF2, GST-tagged, arrays performed twice, n of 4): 0.5963 | Array Heatmap value (peptide array binding signal) (PHF8; PHF8, GST-tagged, arrays performed twice, n of 4): 0.3718 | Array Heatmap value (peptide array binding signal) (PHRF1 (RP); [1]): 0.4962 | Array Heatmap value (peptide array binding signal) (RAG2; RAG2, GST-tagged, arrays performed twice, n of 4): 0.2588 | Array Heatmap value (peptide array binding signal) (SP140L; [1]): 0.3853 | Array Heatmap value (peptide array binding signal) (TAF3; TAF3, GST-tagged, arrays performed twice, n of 4): 0.2722 | Array Heatmap value (peptide array binding signal) (TRIM66 (PB); [1]): 0.6142
Substance: H4K8me1: H4 1-23 [Peptide H4K8me1]

Substance: H4K5crK8crK12cr: H4 1-23
Array Heatmap value (peptide array signal) (AIRE (PP); [2]): 0.3482 | Array Heatmap value (peptide array signal) (BAZ2B; [2]): 0.3353 | Array Heatmap value (peptide array signal) (BPTF (PB); [2]): 0.277 | Array Heatmap value (peptide array signal) (CHD4 (PPCC); [2]): 0.5037 | Array Heatmap value (peptide array signal) (CHD5 (PCC); [2]): 0.6269 | Array Heatmap value (peptide array signal) (CHD5 (PPCC); [2]): 0.4173 | Array Heatmap value (peptide array signal) (DIDO1; DIDO1, sheet "Array Heatmap", each array performed twice, total n = 4): 0.571 | Array Heatmap value (peptide array signal) (DPF2 (PPC2W2); [2]): 0.6037 | Array Heatmap value (peptide array signal) (ING1; ING1, sheet "Array Heatmap", each array performed twice, total n = 4): 0.4798 | Array Heatmap value (peptide array signal) (ING2; ING2, sheet "Array Heatmap", each array performed twice, total n = 4): 0.5899 | Array Heatmap value (peptide array signal) (ING3; ING3, sheet "Array Heatmap", each array performed twice, total n = 4): 0.3926 | Array Heatmap value (peptide array signal) (ING4; ING4, sheet "Array Heatmap", each array performed twice, total n = 4): 0.3713 | Array Heatmap value (peptide array signal) (ING5; ING5, sheet "Array Heatmap", each array performed twice, total n = 4): 0.2562 | Array Heatmap value (peptide array signal) (KDM4C (TTP); [2]): 0.3678 | Array Heatmap value (peptide array signal) (KDM5A (1); [2]): 0.3568 | Array Heatmap value (peptide array signal) (KDM5A (3); [2]): 0.3558 | Array Heatmap value (peptide array signal) (KDM5B (1); [2]): 0.5237 | Array Heatmap value (peptide array signal) (KDM5B (3); [2]): 0.4017 | Array Heatmap value (peptide array signal) (KDM7A; [2]): 0.2744 | Array Heatmap value (peptide array signal) (MLL5; MLL5, sheet "Array Heatmap", each array performed twice, total n = 4): 0.4572 | Array Heatmap value (peptide array signal) (MORC3 (CW); [2]): 0.2832 | Array Heatmap value (peptide array signal) (PHF13; PHF13, sheet "Array Heatmap", each array performed twice, total n = 4): 0.5013 | Array Heatmap value (peptide array signal) (PHF21A; [2]): 0.3861 | Array Heatmap value (peptide array signal) (PHF23; PHF23, sheet "Array Heatmap", each array performed twice, total n = 4): 0.4763 | Array Heatmap value (peptide array signal) (PHF2; PHF2, sheet "Array Heatmap", each array performed twice, total n = 4): 0.4485 | Array Heatmap value (peptide array signal) (PHF8; PHF8, sheet "Array Heatmap", each array performed twice, total n = 4): 0.292 | Array Heatmap value (peptide array signal) (PHRF1 (RP); [2]): 0.3292 | Array Heatmap value (peptide array signal) (RAG2; RAG2, sheet "Array Heatmap", each array performed twice, total n = 4): 0.2029 | Array Heatmap value (peptide array signal) (SP140L; [2]): 0.3203 | Array Heatmap value (peptide array signal) (TAF3; TAF3, sheet "Array Heatmap", each array performed twice, total n = 4): 0.2134 | Array Heatmap value (peptide array signal) (TRIM66 (PB); [2]): 0.525
